Data reported in patent publication US10517889B2, “Modulators of SMAD7 expression” (Ionis Pharmaceuticals, Inc., priority 2017, dated 2019).
Strand notation (5' to 3'): a small letter for the sugar, then the base; units joined by * are phosphorothioate-linked, units joined directly phosphodiester-linked; [ ] holds rarer units or linkages, { } end groups; capitals alone tell only the bases. k = constrained ethyl (cEt); [5mC] = 5-methylcytosine; d = 2'-deoxy (DNA)

Each substance was assayed on human SMAD7 mRNA (assay: Antisense inhibition of human SMAD7 mRNA expression in Hep3B cells by 3-10-3 cEt gapmers, 10,000 nM, electroporation (Example 2)). Conditions: Hep3B cells, 10,000 nM antisense oligonucleotide, electroporation, approximately 24 hours, RT-PCR primer probe set RTS5062, relative to untreated control cells.
Type: cell-based
Summary of the method: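 Hep3B cells (20,000/well) were electroporated with 10,000 nM 3-10-3 cEt gapmer (16-mer, phosphorothioate, 5-methylcytosines) and harvested after about 24 h. SMAD7 mRNA quantified by RT-qPCR with primer probe set RTS5062, normalized to total RNA by RiboGreen; percent inhibition relative to untreated cells.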

Substance	% Inhibition [%]
800036 (kG*kT*kT*dA*dG*dG*dA*d[5mC]*dA*dG*d[5mC]*dT*d[5mC]*k[5mC]*kA*kG; antisense) [compound 800036]	38
798914 (kG*kT*k[5mC]*d[5mC]*d[5mC]*d[5mC]*dT*d[5mC]*d[5mC]*dG*d[5mC]*dA*d[5mC]*kG*k[5mC]*kG; antisense) [compound 798914]	56
798876 (kG*kG*k[5mC]*d[5mC]*dG*d[5mC]*dT*dG*d[5mC]*dA*dG*dG*d[5mC]*kT*kG*kT; antisense) [compound 798876]	50
800053 (antisense k[5mC]*kT*kA*d[5mC]*dA*d[5mC]*d[5mC]*dA*dA*dA*dG*dA*d[5mC]*k[5mC]*kT*kG) [compound 800053]	63

Same assay, conditions: Hep3B cells, electroporation with 10,000 nM antisense oligonucleotide, approximately 24 hours, RTS5062, percent inhibition of SMAD7 mRNA relative to untreated control cells

Substance	% Inhibition [%]
799297 (antisense kA*kA*kA*dG*dG*d[5mC]*dT*dG*dA*d[5mC]*dT*d[5mC]*dG*k[5mC]*kG*kG) [compound 799297]	62
799762 (antisense kG*kT*k[5mC]*d[5mC]*dT*dA*dA*dA*dG*dA*d[5mC]*dG*dG*k[5mC]*kT*k[5mC]) [compound 799762]	21
799729 (antisense kT*kA*kT*d[5mC]*dT*dT*d[5mC]*d[5mC]*d[5mC]*dG*d[5mC]*dT*dG*kA*kA*kA) [compound 799729]	52

Same assay, conditions: Hep3B cells, electroporation with 10,000 nM antisense oligonucleotide, approximately 24 hours, SMAD7 mRNA by RT-PCR (RTS5062), relative to untreated control cells

Substance	% Inhibition [%]
799432 (antisense kT*kG*kA*d[5mC]*dA*dG*d[5mC]*d[5mC]*dA*d[5mC]*dA*dA*dG*kT*k[5mC]*kA) [compound 799432]	7
830016 (antisense kG*kG*kT*dG*d[5mC]*d[5mC]*d[5mC]*dA*dA*d[5mC]*d[5mC]*d[5mC]*dT*kT*k[5mC]*kA) [compound 830016]	32
800103 (antisense kG*kG*kA*d[5mC]*dG*dA*dG*dA*d[5mC]*dA*dG*dA*dA*kA*kG*kA) [compound 800103]	4
799965 (antisense k[5mC]*kT*k[5mC]*d[5mC]*dA*dG*dT*dG*dA*dA*dG*dT*dG*kA*kG*kA) [compound 799965]	0
799331 (kA*kG*kG*dG*dT*dA*dT*dG*d[5mC]*dA*d[5mC]*dA*d[5mC]*kT*k[5mC]*kT; antisense) [compound 799331]	1
799370 (antisense kG*kG*k[5mC]*dA*d[5mC]*dT*d[5mC]*dA*d[5mC]*dT*dA*dA*dG*kT*k[5mC]*kT) [compound 799370]	13
798847 (kT*kT*kG*d[5mC]*dT*d[5mC]*d[5mC]*dG*d[5mC]*dA*d[5mC]*d[5mC]*dT*kT*k[5mC]*kT; antisense) [compound 798847]	24
799447 (antisense kA*kT*kG*dA*dA*dT*dG*dA*d[5mC]*d[5mC]*dT*dA*dA*kT*k[5mC]*kT) [compound 799447]	30
830024 (antisense kT*kG*kT*dA*dA*dA*dT*d[5mC]*dG*dA*dA*dA*dG*k[5mC]*kA*kA) [compound 830024]	40
799368 (antisense k[5mC]*kT*kA*dA*dG*dT*d[5mC]*dT*d[5mC]*d[5mC]*dG*dA*dG*kT*kT*kA) [compound 799368]	68
830062 (k[5mC]*k[5mC]*kT*dA*d[5mC]*d[5mC]*dA*d[5mC]*d[5mC]*d[5mC]*d[5mC]*dT*dG*kT*kG*kA; antisense) [compound 830062]	17
830034 (antisense kG*kG*k[5mC]*dT*dG*dA*dT*d[5mC]*dT*dG*dG*dA*dG*kA*kA*k[5mC]) [compound 830034]	30
798866 (kG*kT*k[5mC]*d[5mC]*dT*dG*dG*dA*dG*dT*d[5mC]*d[5mC]*dG*kG*kG*kT; antisense) [compound 798866]	20
799255 (antisense k[5mC]*kA*kA*dA*dA*d[5mC]*dT*d[5mC]*d[5mC]*dA*dA*dA*dG*kG*kT*kG) [compound 799255]	0

Same assay, conditions: Hep3B cells, electroporation with 10,000 nM antisense oligonucleotide, approximately 24 hours, primer probe set RTS5062, relative to untreated control cells

Substance	% inhibition of SMAD7 mRNA expression [%]	% Inhibition [%]
798964 (antisense k[5mC]*k[5mC]*k[5mC]*dT*dT*d[5mC]*dT*dT*d[5mC]*d[5mC]*dA*dA*dA*kA*kA*kA) [compound 798964]	32	
799190 (antisense kA*kG*kA*dA*dT*dG*d[5mC]*dT*dT*d[5mC]*dT*d[5mC]*dT*kT*kG*kT) [compound 799190]	61	
798778 (k[5mC]*kA*k[5mC]*dA*dG*d[5mC]*dA*dA*d[5mC]*dA*d[5mC]*dA*dG*k[5mC]*k[5mC]*kT; antisense) [compound 798778]	64	
799191 (antisense kA*kT*kG*dA*dG*dA*dA*dT*dG*d[5mC]*dT*dT*d[5mC]*kT*k[5mC]*kT) [compound 799191]		26
798729 (antisense kG*kA*k[5mC]*d[5mC]*dT*dT*dT*dG*dG*d[5mC]*dA*d[5mC]*d[5mC]*kT*k[5mC]*kG) [compound 798729]	51	
798730 (antisense kG*kG*kT*dG*dA*d[5mC]*d[5mC]*dT*dT*dT*dG*dG*d[5mC]*kA*k[5mC]*k[5mC]) [compound 798730]	0	
798775 (k[5mC]*k[5mC]*kT*d[5mC]*dT*dT*dG*dA*d[5mC]*dT*dT*d[5mC]*d[5mC]*kG*kA*kG; antisense) [compound 798775]	0	
798790 (k[5mC]*kG*kG*dG*dT*dA*dT*d[5mC]*dT*dG*dG*dA*dG*kT*kA*kA; antisense) [compound 798790]	49	
799165 (antisense kG*kT*kG*dT*d[5mC]*dG*dA*dA*dG*dT*dA*dT*d[5mC]*kA*kT*kA) [compound 799165]	42	

Same assay, conditions: Hep3B cells, electroporation, 10,000 nM antisense oligonucleotide, approximately 24 hours, RTS5062, relative to untreated control cells

Substance	% inhibition of SMAD7 mRNA expression [%]
799774 (kG*k[5mC]*k[5mC]*d[5mC]*dT*dG*dT*dT*d[5mC]*dT*dG*d[5mC]*dG*k[5mC]*kT*kA; antisense) [compound 799774]	0
799694 (antisense kA*kA*kG*dG*dA*dA*dT*dT*dA*dT*dG*dA*d[5mC]*kA*k[5mC]*kA) [compound 799694]	7
799620 (kT*kA*kA*d[5mC]*dG*dA*d[5mC]*d[5mC]*dA*dG*dG*d[5mC]*d[5mC]*kT*kG*kT; antisense) [compound 799620]	31
799536 (kA*k[5mC]*k[5mC]*dG*dA*dT*dG*d[5mC]*dA*dT*d[5mC]*d[5mC]*dA*kA*k[5mC]*kT; antisense) [compound 799536]	50
799499 (antisense kT*k[5mC]*k[5mC]*dT*dT*dT*dA*dG*dT*dG*dG*d[5mC]*d[5mC]*kT*kA*k[5mC]) [compound 799499]	54
799308 (antisense k[5mC]*kG*k[5mC]*dT*d[5mC]*dT*dA*dA*dA*d[5mC]*dA*dG*d[5mC]*kA*kT*kG) [compound 799308]	47

Same assay, conditions: SMAD7 mRNA, Hep3B cells, 10,000 nM antisense oligonucleotide, electroporation, approximately 24 hours, primer probe set RTS5062, relative to untreated control cells

Substance	% Inhibition [%]
790519 (k[5mC]*kT*kG*dG*dA*dG*dT*d[5mC]*d[5mC]*dG*dG*dG*dT*kT*kG*kT; antisense) [compound 790519]	8
829760 (antisense k[5mC]*k[5mC]*kG*d[5mC]*d[5mC]*dT*dT*dG*d[5mC]*d[5mC]*d[5mC]*dA*dG*kG*k[5mC]*kA) [compound 829760]	3
800795 (antisense kT*kA*kA*d[5mC]*dT*dG*d[5mC]*dT*dG*d[5mC]*dG*dG*dT*kT*kG*kT) [compound 800795]	12
829718 (antisense k[5mC]*k[5mC]*kA*dG*dT*d[5mC]*dT*d[5mC]*d[5mC]*d[5mC]*dG*dG*dA*kG*kG*k[5mC]) [compound 829718]	15
829724 (antisense kG*kG*k[5mC]*dA*dT*dG*d[5mC]*dG*d[5mC]*d[5mC]*dA*dG*dT*k[5mC]*kT*k[5mC]) [compound 829724]	54
772714 (kA*kG*kG*dT*dG*dA*dT*dA*dA*d[5mC]*dA*d[5mC]*d[5mC]*k[5mC]*kA*kT; antisense) [compound 772714]	0

Same assay, conditions: SMAD7 mRNA, Hep3B cells, electroporation with 10,000 nM antisense oligonucleotide, approximately 24 hours, primer probe set RTS5062, relative to untreated control cells

Substance	% Inhibition [%]
829878 (antisense kG*kA*kG*dT*d[5mC]*d[5mC]*dG*dG*dG*dT*dT*dG*dT*k[5mC]*k[5mC]*kA) [compound 829878]	18
829944 (k[5mC]*k[5mC]*kA*dG*dT*dT*dA*dA*dT*d[5mC]*dA*dT*dT*kA*k[5mC]*kT; antisense) [compound 829944]	23
829838 (k[5mC]*k[5mC]*k[5mC]*dA*dG*dT*dA*dT*dG*d[5mC]*d[5mC]*dA*d[5mC]*k[5mC]*kA*k[5mC]; antisense) [compound 829838]	28
829934 (kT*kA*kG*dG*dT*dG*dA*dT*dA*dA*d[5mC]*dA*d[5mC]*k[5mC]*k[5mC]*kA; antisense) [compound 829934]	26
829869 (antisense k[5mC]*kA*kG*dT*dG*dT*dG*dG*d[5mC]*dG*dG*dA*d[5mC]*kT*kT*kG) [compound 829869]	37
829982 (k[5mC]*kG*kG*dT*dG*dA*dT*dT*dG*d[5mC]*d[5mC]*dT*dT*kG*kA*kT; antisense) [compound 829982]	44
829920 (antisense kA*kT*kA*d[5mC]*dG*dA*dG*dT*dG*dT*dA*dT*dG*kA*kG*kT) [compound 829920]	30
